Results: patent US6229016A, “Method for treating tumors using 2-aryl-naphthyridin-4-ones” (priority 2000, dated 2001)
Like-named read-outs stand apart in the source and are kept apart here.

Key:
[1] = test system: 786-0 renal cancer cell line; assay: NCI in vitro screen, renal cancer 786-0; format: cell-based; conditions: Homo sapiens, read-out: Cytotoxicity log GI50 (converted)
From the text: (§1) Compounds 41-51 and 53-68 were submitted to NCI and assayed in the NCI's in vitro disease-oriented antitumor screen, which involves determination of a test compound's effects on the growth of approximately 60 human tumor cell lines. See, M. R. Boyd, et al. In Cancer: Principles and Practice of Oncology Updates; De Vita, V. T., Hellman, S., Rosenberg, S. A., Eds; J. B. Lippincoft: Philadelphia, pp 1-12 (1989); and A. Monks, et al. J. Natl. Cancer Inst. 83:757 (1991). These lines include leukemia, non-small cell lung, colon, central nervous system (CNS), melanoma, ovarian, renal, prostate, and breast cancers.
(§2) Compounds 29'-51' were submitted to NCI and assayed in the NCI's in vitro disease-oriented antitumor screen, using the techniques described in Example 5. This assay involves determinations of a test agent's effect on growth parameters against a panel of approximately 60 human tumor cell lines, derived largely from solid tumors, including non-small cell lung, colon, central nervous system, renal, ovarian, prostate, and breast cancers, plus a few leukemia cell lines. The cytotoxic effects of each compound are obtained as GI50 or […] values, which represent the molar drug concentrations required to cause half growth inhibition and total growth inhibition, respectively. The results are expressed for each cell line as average log GI50 values in Table 4, as log GI50 values in Table 5, and as log TGI values and average log TGI values in Table 6.

[2] = test system: OVCAR-3 ovarian cancer cell line; assay: NCI in vitro screen, ovarian cancer OVCAR-3; format: cell-based; conditions: Homo sapiens, read-out: Cytotoxicity log GI50 (converted)
[3] = test system: SF-295 CNS cancer cell line; assay: NCI in vitro screen, CNS cancer SF-295; format: cell-based; conditions: Homo sapiens, read-out: Cytotoxicity log GI50 (converted)
[4] = test system: MDA-MB-435 breast cancer cell line; assay: NCI in vitro screen, breast cancer MDA-MB-435; format: cell-based; conditions: Homo sapiens; for IC (TGI): range over four compounds and two cell lines, read-out: log TGI; for GI50: read-out: Cytotoxicity log GI50 (converted)
[5] = test system: PC-3 prostate cancer cell line; assay: NCI in vitro screen, prostate cancer PC-3; format: cell-based; conditions: Homo sapiens, read-out: Cytotoxicity log GI50 (converted)
From the text: as §1, §2

[6] = test system: MDA-N breast cancer cell line; assay: NCI in vitro screen, breast cancer MDA-N; format: cell-based; conditions: Homo sapiens; for IC (TGI): range over four compounds and two cell lines, read-out: log TGI; for GI50: read-out: Cytotoxicity log GI50 (converted)
From the text: as §1, §2

[7] = test system: NCI's 60 human tumor cell line; assay: NCI 60 human tumor cell line in vitro screen (average / whole panel); format: cell-based; conditions: calculated from all cell lines tested, molar concentrations, read-out: average log GI50 (converted)
[8] = test system: HCT-116 colon cancer cell line; assay: NCI in vitro screen, colon cancer HCT-116; format: cell-based; conditions: Homo sapiens; HCT-1.16 (head); HCT-116 (footnote); read-out: Cytotoxicity log GI50 (converted)
[9] = test system: SK-MEL-5 melanoma cell line; assay: NCI in vitro screen, melanoma SK-MEL-5; format: cell-based; conditions: Homo sapiens, read-out: Cytotoxicity log GI50 (converted)
From the text: as §1, §2

[10] = test system: HL-60(TB) leukemia cell line; assay: cells; format: cell-based; conditions: Homo sapiens; for IC (TGI): HL-60, H-60 cell line, range over four compounds, read-out: log TGI; for GI50: HL-60(TB), read-out: Cytotoxicity log GI50 (converted)
NCI-H226 cell line = assay: NCI in vitro screen, NCI-H226; format: cell-based; conditions: Homo sapiens, range over four compounds, read-out: log TGI
From the text: as §1

[11] = test system: U-251 CNS cancer cell line; assay: NCI in vitro screen, CNS cancer U-251; format: cell-based; conditions: Homo sapiens, read-out: Cytotoxicity log GI50 (converted)
[12] = test system: NCI-H460 non-small cell lung cancer cell line; assay: NCI in vitro screen, non-small cell lung cancer NCI-H460; format: cell-based; conditions: Homo sapiens, read-out: Cytotoxicity log GI50 (converted)
tubulin = assay: Tubulin polymerization assay; format: biochemical, bovine
Procedure: Electrophoretically homogeneous bovine brain tubulin was purified as described in E. Hamel, et al. Biochemistry 23:4173 (1984).
The tubulin polymerization assay was performed as described in S. Kuo, et al. J. Med. Chem. 36:1146 (1993); L. Li, et al. J. Med. Chem. 37:1126 (1994); and L. Li J. Med. Chem. 37:3400 (1994). In brief, tubulin at 1.2 mg/ml (12 μM) was preincubated for 15 min at 26° C. in a 0.24-ml volume of 0.8 M monosodium glutamate (pH 6.6 with NaOH in a 2 M stock solution) with varying drug concentrations. The drug stock solutions were in DMSO, and the final solvent concentration was 4 % (v/v). All concentrations are in terms of the final reaction volume (0.25 ml). The reaction mixtures were chilled on ice, and 10 μl of 10 mM GTP was added to each reaction mixture. Samples were transferred to cuvettes held at 0° C. by an electronic temperature controller in Gilford spectrophotometers. Baselines were established at 350 nm, and polymerization initiated by a temperature jump to 26° C. The jump took about 50 sec to complete. After 20 min, turbidity readings were recorded, and the temperature controller was set to 0C. When depolymerization was complete, turbidity readings were again recorded. […] IC50 values were obtained graphically from inhibition of polymerization by different drug concentrations.
Electrophoretically, homogeneous bovine brain tubulin was purified as described in Example 6.
The tubulin polymerization assay was performed as described in Example 6.

[13] = Tables 1 and 4, read-out: ITP HC50 ± SD (Inhibition of Tubulin Polymerization)
[14] = read-out: IC50, inhibition of tubulin polymerization

Row | SMILES | GI50 [1] [µM] | GI50 [2] [µM] | GI50 [3] [µM] | IC (TGI) [4] [µM] | GI50 [4] [µM] | GI50 [5] [µM] | IC (TGI) [6] [µM] | GI50 [6] [µM] | GI50 [7] [µM] | GI50 [8] [µM] | GI50 [9] [µM] | IC (TGI) [10] [µM] | GI50 [10] [µM] | IC (TGI) (NCI-H226 cell line) [µM] | GI50 [11] [µM] | GI50 [12] [µM] | IC50 (tubulin; [13]) [µM] | IC50 (tubulin; [14]) [µM]
1 | COc1cccc(-c2cc(=O)c3ccc(C)nc3[nH]2)c1 [Compound 47] | 0.0537 | 0.0224 | 0.0302 | 0.0214 to 0.0398 | < 0.01 | 0.0331 | 0.0214 to 0.0398 | 0.011 | 0.0575 | 0.0468 | 0.0339 | 0.0398 to 0.0646 | 0.0182 | 0.0759 to 0.692 | 0.0537 | 0.0437 | – | –
2 | COc1ccc(C2=Nc3ncc(C)cc3C(=O)C2)cc1 [Compound 53, 2-(4'-Methoxyphenyl)-6-methyl-1,8-naphthyridin-4-one] | 5.13 | 2.95 | 5.25 | – | 1.82 | 5.37 | – | 1.7 | 6.17 | 4.17 | 3.72 | – | 2.29 | – | 4.17 | 4.07 | 7.7 ± 0.7 | 1.5 to 9.8
3 | O=C1CC(c2ccc(Cl)cc2)=Nc2ncccc21 [Compound 62, 2-(4'-Chlorophenyl)-1,8-naphthyridin-4-one] | 33.9 | 23.4 | 40.7 | – | 5.89 | 47.9 | – | 8.32 | 38.9 | 32.4 | 28.8 | – | 16.6 | – | 39.8 | 38 | 22 ± 0.1 | 11 to 32
4 | COc1ccc(C2=Nc3nc(C)cc(C)c3C(=O)C2)cc1 [Compound 55, 2-(4'-Methoxyphenyl)-5,7-dimethyl-1,8-naphthyridin-4-one] | 58.9 | 32.4 | 42.7 | – | 28.8 | 24 | – | 33.1 | 33.1 | 36.3 | 17.8 | – | 15.8 | – | 91.2 | 40.7 | > 40 | –
5 | O=C1CC(c2ccc(F)cc2)=Nc2ncccc21 [Compound 56, 2-(4'-Fluorophenyl)-1,8-naphthyridin-4-one] | 44.7 | 45.7 | 50.1 | – | 12 | 45.7 | – | 14.1 | 45.7 | 42.7 | 30.2 | – | 12.9 | – | 47.9 | 34.7 | > 40 | –
6 | COc1ccc(C2=Nc3nc(C)ccc3C(=O)C2)cc1 [Compound 54, 2-(4'-Methoxyphenyl)-7-methyl-1,8-naphthyridin-4-one] | > 100 | > 100 | 89.1 | – | 42.7 | > 100 | – | 55 | 91.2 | > 100 | 47.9 | – | > 100 | – | > 100 | > 100 | > 40 | –
7 | Cc1cc(C)c2c(n1)N=C(c1ccc(Cl)cc1)CC2=O [Compound 66, 2-(4'-Chlorophenyl)-5,7-dimethyl-1 ,8-naphthyridin-4-one] | 21.4 | 18.2 | 16.2 | – | 4.07 | 6.31 | – | 3.63 | 19.5 | 14.8 | 14.1 | – | 25.1 | – | 30.2 | 22.4 | 32 ± 8 | 11 to 32
8 | O=C1CC(c2ccc(F)cc2)=Nc2ncc(Cl)cc21 [Compound 61, 2-(4'-Fluorophenyl)-6-chloro-1,8-naphthyridin-4-one] | 32.4 | 17.4 | 21.4 | – | 2.57 | 21.9 | – | 2.95 | 21.9 | 17 | 6.61 | – | 3.89 | – | 29.5 | 30.2 | 16 ± 3 | 11 to 32
9 | Cc1ccnc2c1C(=O)CC(c1ccc(Cl)cc1)=N2 [Compound 63, 2-(4'-Chlorophenyl)-5-methyl-1,8-naphthyridin-4-one] | 3.98 | 3.16 | 5.37 | – | 0.759 | 2.88 | – | 1.32 | 5.13 | 3.72 | 3.47 | – | 1.78 | – | 4.57 | 3.72 | 4.8 ± 1.4 | 1.5 to 9.8
10 | Cc1ccc2c(n1)N=C(c1ccc(F)cc1)CC2=O [Compound 59, 2-(4'-Fluorophenyl)-7-methyl-1,8-naphthyridin-4-one] | 41.7 | 32.4 | 37.2 | – | 5.89 | 20.9 | – | 11.7 | 32.4 | 33.9 | 31.6 | – | 14.1 | – | 37.2 | 33.9 | > 40 | > 40
11 | COc1cccc(-c2cc(=O)c3cc(Cl)cnc3[nH]2)c1 [Compound 49] | 0.427 | 0.49 | 0.0603 | 0.0214 to 0.0398 | 0.0324 | 0.138 | 0.0214 to 0.0398 | 0.0316 | 0.0977 | 0.12 | 0.126 | 0.0398 to 0.0646 | 0.0269 | 0.0759 to 0.692 | 0.2 | 0.0631 | – | –
12 | Cc1ccnc2c1C(=O)CC(c1ccc(F)cc1)=N2 [Compound 57, 2-(4'-Fluorophenyl)-5-methyl-1,8-naphthyridin-4-one] | 33.9 | 56.2 | 79.4 | – | 2.88 | 51.3 | – | 3.55 | 38 | 16.2 | 16.2 | – | 4.79 | – | 36.3 | 32.4 | 18 ± 2 | 11 to 32
13 | Cc1cnc2c(c1)C(=O)CC(c1ccc(Cl)cc1)=N2 [Compound 64, 2-(4'-Chlorophenyl)-6-methyl-1,8-naphthyridin-4-one] | 6.31 | 2.24 | 2.4 | – | 0.603 | 1.15 | – | 0.562 | 3.72 | 2.82 | 2.19 | – | 2.24 | – | 3.02 | 3.89 | 2 ± 0.01 | 1.5 to 9.8
14 | Cc1cnc2c(c1)C(=O)CC(c1ccc(F)cc1)=N2 [Compound 58, 2-(4'-Fluorophenyl)-6-methyl-1,8-naphthyridin-4-one] | 32.4 | 22.4 | 29.5 | – | 2.63 | 25.7 | – | 3.02 | 26.3 | 24 | 21.9 | – | 2.4 | – | 25.1 | 33.9 | 20 ± 2 | 11 to 32
